From patent US6815187B1, “Stimulation of angiogenesis via syndecan-4 cytoplasmic domain signaling pathway” (Beth Israel Deaconess Medical Center, priority 1998, dated 2004)
pIC50, pKd: −log10 of the molar value. Where no end group is shown, it is not given here. [ ]: non-standard residue; d: D form. pS = N[C@@H](COP(=O)(O)O)C(=O)O

Experiments:
PKC = details: commercially available PKC inhibitors; cited from earlier work
[1] = tested on: syndecan-4 cytoplasmic tail phosphorylation in NIH 3T3 cells; test: Syndecan-4 cytoplasmic tail phosphorylation stoichiometry (32P/35S double labeling) in NIH 3T3 cells; format: cell-based
Experimental: Confluent NIH 3T3 cells were washed twice in phosphate-free DMEM and incubated for 24 h at 37° C. in a 5% CO2 humidified atmosphere in phosphate-free DMEM supplemented with 0.5% fetal bovine serum. The cells were washed twice with methionine, phosphate, and serum-free DMEM and incubated for 6 h in the same medium, supplemented with 400 μCi/ml [^35S]methionine (New England Nuclear, Boston, Mass.). At the onset of the last 2 h of incubation, 500 μCi/ml [^32P]orthophosphoric acid (New England Nuclear) was added to the medium.
Cells were washed with PBS ([…], 10 mM Na2HPO4, 3.6 mM KCl, 1.8 mM KH2PO4, pH 7.4), dissociated by 0.05% trypsin, 0.5 mM EDTA (Life Technologies, Inc.) in PBS for 10 min at 22° C., and sedimented by 2000×g centrifugation at 4° C. for 5 min. The syndecan-4 ectoplasmic domain was immunoprecipitated from 0.5 ml of medium collected before cell trypsinization or from 0.5 ml of supernatant of the latter centrifugation. The cytoplasmic tail was immunoprecipitated from the pellet after a 30-min extraction at 4° C. in 0.5 mil of lysis buffer supplemented with 100 μM leupeptin, 2 μM pepstatin, and 10 nM okadaic acid (Sigma). Total protein concentrations in each fraction were measured by spectrophotometry at 595 nm (DU 640, Beckman, Fullerton, Calif.) of an aliquot developed for 10 min in Protein Assay Dye Reagent (Bio-Rad). Bovine serum albumin (Life Technologies Inc.) was used as standard.
The medium, trypsinization supernatant, and extracted pellet fractions were precleared by adding 30 μl of 1:1 (v/v) slurry of protein G plus/protein A-agarose beads (Calbiochem), and 10 μl of nonimmune rabbit serum (Life Technologies Inc.). After a 2-h incubation at 4° C. in rotating tubes, the beads were sedimented by 5 min, 5000×g centrifugation at 4° C. The cleared samples were supplemented with 40 μl of 1:1 (v/v) slurry of the above beads and 10 μl of rabbit polyclonal antiserum (syndecan-4 ectoplasmic domain-specific antiserum was added to the medium and trypsinization supernatant samples, and cytoplasmic tail-specific antiserum was added to the extracted pellet fraction) and incubated in rotating tubes for 18 h at 4° C. The agarose beads were collected by centrifugation as above, washed three times in heparinase digestion buffer, and resuspended in 40 μl of digestion buffer, and the GAG chains of the bead-attached ectoplasmic domains from the medium and from the trypsinization-supernatant were cleaved as above. The ectoplasmic and cytoplasmic tails were dissociated from the beads by a 10-min incubation in SDS buffer at 95° C., and the beads were sedimented by a 5 min, 13,000×g centrifugation at 4° C.
Immunoprecipitated, full-length syndecan-4 core proteins were resuspended in Laemmli sample buffer (2% SDS, 10% glycerol), 0.5% P-mercaptoethanol, 0.004% bromphenol blue, 50 mM Tris-HCl, pH 6.8) resolved by SDS-PAGE on a 10% slab gel, and transferred to a polyvinylidene fluoride (PVDF) membrane (Immobilon-P, Millipore, Bedford, Mass.) for 12 h at 25 mA in 150 mM glycine, 20 mM Tris-HCl, and 20% methanol. The ectoplasmic and cytoplasmic syndecan-4 domains were resolved on a 15% slab gel and transferred for 90 min at 20 mA in 150 mM glycine, 20 mM Tris-HCl, and 30% methanol to a low porosity PVDF membrane (Immobilon-P^SQ, Millipore). Radiolabeled bands detected by exposure to film (XAR, Kodak, Rochester, N.Y.) were excised, and their radioactivity was measured in both the ^32P and ^35S spectra by scintillation counting (LS 6000IC, Beckman, Fullerton, Calif.). In some cases, the same membranes were used for immunoblotting prior to band excision.
To determine the stoichiometry of the basal phosphorylation of syndecan-4, as well as the effect of bFGF and of other compounds on this phosphorylation, the cells were doubly labeled with [^35S]methionine and [^32P]orthophosphoric acid. […]

[2] = PIP2 binding assay (filtration of PIP2 micelle-bound peptide)
Experimental: PIP2 (from Sigma, dissolved at 2 mg/ml in 20 parts CHCl3, 9 parts MeOH, 1 part H2O, 0.1 part 1N HCl) was dried under N2 and sonicated for 5 min in ice-cold H2O at a final concentration of 1 mg/ml. Syndecan-4 cytoplasmic tail peptides S4c or S4c-P (100 μM) were incubated on ice for 30 min with the indicated concentrations of PIP2 in 10 mM Tris-HCl (pH 7.5), 75 mM KCl, 0.5 mM DTT, in aliquots of 100 μl. The samples were layered on 30 kDA-molecular-mass cutoff cellulose filters (Ultrafree-MC, Millipore, Bedford, Mass.), and spun at 2000 g for 1 min, following the method described in Haarer et al., Mol. Cell Biol. 13: 7864-7873 (1993). The samples (40 μl of each in Laemmli sample buffer, 2% SDS, 10% glycerol, 0.5% β-mercaptoethanol, 0.004% bromophenol blue, 50 mM Tris-HCl, pH 6.8) were resolved by SDS-PAGE on 16.5% Tris-tricine gels (BioRad Laboratories, Hercules, Calif.). Gels were stained with Coomassie Brilliant Blue G-250 (BioRad Laboratories), and images of the stained bands were digitized (DeskScan II on ScanJet 4c, Hewlett Packard) and quantitated by densitometry (ImageQuant, Molecular Dynamics, Sunnyvale, Calif.).
Both the oligomerization and PKCα activation capacities of the cytoplasmic tail of syndecan-4 have been reported as depending on the presence of PIP2 [Oh et al., J. Biol. Chem. 272: 11805-11811 (1997); Lee et al., J. Biol. Chem. 273: 13022-13029 (1998)]. It was of interest, therefore, to determine whether the phosphorylation of Ser^183 in the cytoplasmic tail of syndecan-4 affects the affinity of the tail to PIP2. To this end, the in-vitro binding between PIP2 micelles and S4c or S4c-P peptides was compared using a filtration assay. The filter retains the PIP2 micelle-bound peptide, while the unbound peptide passes through it. The results are illustrated by FIGS. 7A and 7B respectively.
Samples were resolved on 16.5% Tris-tricine gels. FIG. 7B graphically illustrates the densitometry results of the gel bands of the S4c (black bars) and S4c-P (white bars) peptides shown in FIG. 7A.

recombinant PKCα = molecular target: T1, recombinant PKCα (Homo sapiens, UniProt P17252); test: PKC in vitro assay, phosphorylation of PKCβ1 optimal substrate peptide by recombinant PKCα; format: biochemical; details: 50 μM peptide with cofactors PS, DAG and calcium
T1 construct: made in house
Experimental: Samples (30 μl) consisted of PKCβ1 optimal substrate peptide (100 μM) either with or without syndecan-4 cytoplasmic tail peptides S4c or S4c-P (both at 50 μM) in 25 mM Tris-HCl (pH 7.4), […], 1 mM DTT, 50 μM ATP, and 5 μCi [y-^32P]ATP (New England Nuclear, Boston, Mass.). In some assays the buffer was supplemented with either PIP2 (50 μM), or PS (4 μg/ml), diolein (6.2 μg/ml), and 0.2 mM CaCl2. In PKCδ assays the buffer was supplemented with PS and diolein as above, and with 0.5 mM EGTA. Upon addition of either PKCα (120 ng/ml) or PKCδ (430 ng/ml), samples were incubated at 30° C. for 10 min, and reactions were stopped by boiling in Laemmli sample buffer for 4 min. The samples were resolved on 16.5% Tris-tricine gels (BioRad Laboratories), transferred to PVDF membranes and detected as described previously in Experimental Series I.
To assess the effect of Ser^183 phosphorylation on syndecan-4-dependent PKC activation, the ability of the 28 amino acid-long syndecan-4 cytoplasmic tail peptide, S4c, and S4c-P peptides to activate recombinant PKCα was studied using the PKCβ1 optimal substrate peptide in an in-vitro assay. The results are graphically illustrated by FIG. 5.
Densitometry histograms of autoradiographic images of PKC β1 optimal substrate peptide were resolved on 16.5% Tris-tricine gels and then transferred to PVDF membranes (n=3; bars denote SD). […]

[3] = tested on: syndecan-4 expression in NIH 3T3 cells; test: Syndecan-4 expression level by immunoblotting and densitometry of cell lysates; format: cell-based
Experimental: After blocking in PBS containing 5% nonfat milk powder for 1 h at 22° C., the membrane was incubated in the same solution supplemented with 1:3000 (v/v) dilution of either ectoplasmic or cytoplasmic tail-specific antiserum for 2 h, washed with PBS, and incubated for 1 h in 5% milk powder-PBS containing 1:2000 diluted goat anti-rabbit IgG conjugated to peroxidase (Vector Laboratories, Burlingame, Calif.). The secondary antibody was detected, after […] PBS wash, by chemiluminescence (Western Blot, Chemiluminescence Reagent Plus, New England Nuclear). Molecular weights were estimated by comparison with the electrophoretic mobility of standards (Kaleidoscope Prestained Standards, Bio-Rad). Densitometry of digitized images of immunoprobed membranes (ScanJet 4c, Hewlett Packard) was performed using ImageQuant software (Molecular Dynamics, Sunnyvale, Calif.).
If, contrary to our assumption, the incorporation efficiency of ^35S is higher than that of ^32P, the bFGF-induced decrease in syndecan-4 phosphorylation could solely result from bFGF up-regulation of syndecan-4 synthesis. […] The syndecan-4 bands, which similar to immunoprecipitated samples (FIG. 2A) ran at an approximate molecular mass of […], were detected with the antiserum specific to the ectoplasmic domain; and the amount of protein in each band was quantified by densiometry. […]

Cn1c2ccccc2c2c3c(c4c5ccccc5n(CCC#N)c4c21)CNC3=O [Gö 6976]
pIC50 (PKC): 8.10
phosphorylation of syndecan-4 ([1]; Gö 6976 up to 100 nM in PMA (0.5 μM)-treated cells): not reduced

CCCCCCCCCCCCCC(=O)O[C@@H]1[C@@H](C)[C@@]2(O)[C@@H](C=C(CO)C[C@]3(O)C(=O)C(C)=C[C@@H]23)[C@@H]2C(C)(C)[C@]12OC(C)=O [PMA, Phorbol-12-myristate-13-acetate]
syndecan-4 phosphorylation relative to basal level ([1]; 0.5 μM PMA): ~3 fold
stoichiometry of the phosphorylation of syndecan-4 ([1]; 0.5 μM PMA during last 5 h of serum-free starvation, n=3): 0.81±0.33 mol Pi/mol syndecan-4

COc1ccc2c(c[n+](C)c3c4cc5c(cc4ccc23)OCO5)c1OC [chelerythrine]
phosphorylation of syndecan-4 ([1]; 6 μM chelerythrine together with 0.5 μM PMA): undetectable level
concentration above which syndecan-4 phosphorylation started to decline ([1]; applied together with 0.5 μM PMA): above 1.5 μM

Calphostin
pIC50 (PKC): 7.30

S4c-P: similar syndecan-4 cytoplasmic tail peptide with a phosphorylated Ser (RMKKKDEG[pS]YDLGKKPIYKKAPTNEFYA)
pKd ([2]; calculated from densitometry of filter flow-through, FIG. 7, read-out: dissociation constant (Kd) for PIP2): 3.63
peptide passed through the filter ([2]; peptide:PIP2 molar ratio of 1:2): 50%
peptide retained by the filter ([2]; peptide:PIP2 molar ratio of 2:1, 100 μM peptide): none
effect on catalytic activity of PKCα (recombinant PKCα): neither the S4c, nor the S4c-P peptides had any additional effect

basic fibrocyte growth factor [bFGF]
phosphorylation stoichiometry of syndecan-4 ([1]; 10 ng/ml bFGF during last 5 h of serum-free starvation, n=5, basal 0.31±0.12): 0.16±0.02 mol Pi/mol syndecan-4
phosphorylation stoichiometry of syndecan-4 ([1]; 20 and 30 ng/ml bFGF, n=3): 0.12±0.06 mol Pi/mol syndecan-4
level of syndecan-4 expression, % of control cells ([3]; 10 ng/ml bFGF): 85%
level of syndecan-4 expression, % of control cells ([3]; 30 ng/ml bFGF): 93%

calyculin
syndecan-4 phosphorylation in bFGF-treated cells ([1]; 5 nM calyculin applied with 10 ng/ml bFGF): basal level
increase of syndecan-4 phosphorylation relative to basal level ([1]; 5 nM calyculin in the absence of bFGF): more than 2.5 fold
